# From ChEMBL document CHEMBL1152897, “Synthesis and SAR study of novel pseudo-steroids as potent and selective progesterone receptor antagonists” (Bioorg Med Chem Lett, 2009)
# Columns and labels:
# Progesterone receptor = biological target: T1, Progesterone receptor (Homo sapiens, UniProt P06401); assay: Antagonist activity at progesterone receptor in human T47D cells assessed as inhibition of progesterone-induced alkaline phosphatase activity; assay type: functional, cell-based
# T1 sequence (P06401 whole entry): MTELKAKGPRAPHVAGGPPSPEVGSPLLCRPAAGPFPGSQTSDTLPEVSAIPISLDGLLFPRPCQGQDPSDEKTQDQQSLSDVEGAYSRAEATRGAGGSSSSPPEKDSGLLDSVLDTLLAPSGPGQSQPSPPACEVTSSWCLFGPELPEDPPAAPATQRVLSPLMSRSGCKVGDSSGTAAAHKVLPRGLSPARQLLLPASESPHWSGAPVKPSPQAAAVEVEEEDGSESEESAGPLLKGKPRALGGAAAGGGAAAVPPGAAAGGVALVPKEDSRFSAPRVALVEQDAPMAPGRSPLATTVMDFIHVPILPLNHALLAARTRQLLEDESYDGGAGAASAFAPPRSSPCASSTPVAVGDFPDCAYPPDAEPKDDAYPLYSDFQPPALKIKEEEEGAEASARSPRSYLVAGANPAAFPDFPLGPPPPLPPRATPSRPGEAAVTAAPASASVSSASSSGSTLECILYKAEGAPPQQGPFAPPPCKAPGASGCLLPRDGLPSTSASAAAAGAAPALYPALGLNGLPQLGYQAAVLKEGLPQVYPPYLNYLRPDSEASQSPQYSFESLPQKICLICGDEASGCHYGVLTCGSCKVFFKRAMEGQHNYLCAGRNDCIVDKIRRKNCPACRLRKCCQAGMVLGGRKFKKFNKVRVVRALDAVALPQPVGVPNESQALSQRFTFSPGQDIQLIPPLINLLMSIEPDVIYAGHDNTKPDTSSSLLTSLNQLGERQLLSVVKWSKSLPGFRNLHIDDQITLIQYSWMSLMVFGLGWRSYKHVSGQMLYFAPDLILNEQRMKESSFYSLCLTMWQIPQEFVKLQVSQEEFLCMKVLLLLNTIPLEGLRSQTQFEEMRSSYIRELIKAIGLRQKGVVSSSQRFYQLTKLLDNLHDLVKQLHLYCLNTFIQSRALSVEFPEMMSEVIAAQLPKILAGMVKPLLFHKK
# Glucocorticoid receptor = biological target: T2, Glucocorticoid receptor (Homo sapiens, UniProt P04150); assay: Antagonist activity at glucocorticoid receptor in human A549 cells assessed as inhibition of corticoid-induced transcription after 16 hrs by glucocorticoid response element-driven luciferase reporter gene assay; assay type: functional, cell-based
# T2 sequence (P04150 whole entry): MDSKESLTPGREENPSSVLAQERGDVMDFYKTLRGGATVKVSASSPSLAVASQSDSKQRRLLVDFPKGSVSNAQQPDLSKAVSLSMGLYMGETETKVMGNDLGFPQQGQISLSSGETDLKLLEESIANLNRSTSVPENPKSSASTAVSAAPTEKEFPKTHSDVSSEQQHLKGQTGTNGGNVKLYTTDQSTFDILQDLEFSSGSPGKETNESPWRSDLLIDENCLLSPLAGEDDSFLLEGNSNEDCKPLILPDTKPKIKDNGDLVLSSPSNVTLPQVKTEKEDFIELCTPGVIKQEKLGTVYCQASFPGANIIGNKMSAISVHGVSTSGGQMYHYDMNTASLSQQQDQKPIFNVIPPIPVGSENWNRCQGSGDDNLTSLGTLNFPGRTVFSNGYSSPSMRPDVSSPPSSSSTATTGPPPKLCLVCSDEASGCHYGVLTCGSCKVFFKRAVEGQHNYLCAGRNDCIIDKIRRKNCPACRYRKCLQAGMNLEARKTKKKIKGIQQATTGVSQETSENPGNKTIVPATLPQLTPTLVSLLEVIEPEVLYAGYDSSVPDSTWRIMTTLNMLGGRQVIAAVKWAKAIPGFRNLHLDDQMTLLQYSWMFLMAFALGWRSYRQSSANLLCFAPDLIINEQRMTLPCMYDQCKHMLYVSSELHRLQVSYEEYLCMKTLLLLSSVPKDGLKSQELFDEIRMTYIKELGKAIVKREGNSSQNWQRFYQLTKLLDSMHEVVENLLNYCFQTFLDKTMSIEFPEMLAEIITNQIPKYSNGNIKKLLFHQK
# Rattus norvegicus = assay: Blockade of progesterone-dependent inhibition of ethinyl estradiol-induced complement C3 expression in po dosed ovariectomized Sprague-Dawley rat uterus; assay type: functional, organism-based
IC50 (Progesterone receptor),IC50 (Glucocorticoid receptor),IC50 (Rattus norvegicus),Structure (SMILES)
0.082 µM,0.026 µM,–,COc1ccc([C@H]2OC[C@@]3(C)[C@@H](CC[C@@]3(O)C#Cc3ccc(C(F)(F)F)cc3)[C@@H]3CCC4=CC(=O)CCC4=C32)cc1
> 1 µM,0.11 µM,–,C#C[C@]1(O)CC[C@H]2[C@@H]3CCC4=CC(=O)CCC4=C3[C@@H](c3ccc(OC)cc3)OC[C@@]21C
0.034 µM,0.017 µM,16 mg/kg,CC#C[C@]1(O)CC[C@H]2[C@@H]3CCC4=CC(=O)CCC4=C3[C@@H](c3ccc(N(C)C)cc3)OC[C@@]21C
0.0033 µM,0.058 µM,–,C=C(C)[C@]1(O)CC[C@H]2[C@@H]3CCC4=CC(=O)CCC4=C3[C@@H](c3ccc(SC)cc3)OC[C@@]21C
0.06 µM,0.102 µM,–,CN(C)c1ccc([C@H]2OC[C@@]3(C)[C@@H](CC[C@@]3(O)C#Cc3ccccc3)[C@@H]3CCC4=CC(=O)CCC4=C32)cc1
0.0003 µM,0.15 µM,–,C=C(C)[C@]1(O)CC[C@H]2[C@@H]3CCC4=CC(=O)CCC4=C3[C@@H](c3ccc(N(C)C)cc3)OC[C@@]21C
> 1 µM,> 3 µM,–,C=C(C)[C@]1(O)CC[C@H]2[C@@H]3CCC4=CC(=O)CCC4=C3[C@@H](c3ccc(S(C)(=O)=O)cc3)OC[C@@]21C
0.036 µM,0.02 µM,–,CN(C)c1ccc([C@H]2OC[C@@]3(C)[C@@H](CC[C@@]3(O)C(F)(F)C(F)(F)F)[C@@H]3CCC4=CC(=O)CCC4=C32)cc1
0.007 µM,0.132 µM,–,C=C1CCO[C@]12CC[C@H]1[C@@H]3CCC4=CC(=O)CCC4=C3[C@@H](c3ccc(OC)cc3)OC[C@@]12C
> 1 µM,0.041 µM,–,CC#C[C@]1(O)CC[C@H]2[C@@H]3CCC4=CC(=O)CCC4=C3[C@@H](c3ccc(OC)cc3)OC[C@@]21C
0.033 µM,0.068 µM,–,C#C[C@]1(O)CC[C@H]2[C@@H]3CCC4=CC(=O)CCC4=C3[C@@H](c3ccc(N(C)C)cc3)OC[C@@]21C
–,–,4.6 mg/kg,CC#C[C@]1(O)CC[C@H]2[C@@H]3CCC4=CC(=O)CCC4=C3[C@@H](c3ccc(N(C)C)cc3)C[C@@]21C [MIFEPRISTONE]

Structure (SMILES),IC50 (Progesterone receptor),IC50 (Glucocorticoid receptor),IC50 (Rattus norvegicus)
COc1ccc([C@H]2OC[C@@]3(C)[C@@H](CC[C@@]3(O)C#Cc3ccccc3)[C@@H]3CCC4=CC(=O)CCC4=C32)cc1,0.28 µM,0.021 µM,–
C=C1CCO[C@]12CC[C@H]1[C@@H]3CCC4=CC(=O)CCC4=C3[C@@H](c3ccc(N(C)C)cc3)OC[C@@]12C,0.001 µM,0.062 µM,–
CSc1ccc([C@H]2OC[C@@]3(C)[C@@H](CC[C@@]3(O)C(F)(F)C(F)(F)F)[C@@H]3CCC4=CC(=O)CCC4=C32)cc1,0.056 µM,0.007 µM,–
CN(C)c1ccc([C@H]2OC[C@]3(C)[C@@H](O)CC[C@H]3[C@@H]3CCC4=CC(=O)CCC4=C32)cc1,0.93 µM,1.4 µM,–
